The results in this text go back to US10458988B2, “Biotinylated luminescent probe” (priority 2017, dated 2019).

One assay addresses T1, firefly luciferase (Photinus pyralis, UniProt P08659).
T1 construct: purchased Sigma
Briefly: Bioluminescence spectrum of probe B-YL with firefly luciferase. It counts as biochemical. On the procedure: After the synthesis of the biotinylated probe, B-YL, the probe can be evaluated with a commercially available firefly luciferase. […] The mechanism for generating bioluminescence is shown in Scheme 2.
In a well of 96 quartz plate (500 μl), HEPES buffer (30 mM) solution (400 μl, pH=7.7) containing MgSO4 (5.0 mM), ATP (2.6 mM), DTT (3.5 mM), CoA (1.5 mM) and commercially available firefly luciferase (40 μg/ml), was prepared. The probe B-YL was then added and mixed to a final concentration (32 μM). Bioluminescence spectrum of B-YL was then taken immediately with instrument SynergyMx (BioTek, VT).

The test system of a further assay is U87-luc cells. Briefly: Bioluminescence imaging of luciferase-transfected brain cancer cells in vitro. It counts as cell-based. The note with it: B-YL 100 μg/mL, L-15 medium with MgCl2 5 mM. The procedure: (§1) Triplicate wells were plated with increasing numbers of either U87 cells without luciferase (a) or with luciferase (b). In each plate: Row 1, wells 1-3, no cells; wells 4-6, 1,875 cells per well. Row 2, wells 1-3, 3,750 cells per well; wells 4-6, 7,500 cells per well. Row 3, wells 1-3, 15,000 cells per well; wells 4-6, 30,000 cells per well. Row 4, wells 1-3, 60,000 cells per well. Incubation buffer, Leibovitz's L-15 medium with MgCl2 (5 mM). Each well was incubated with B-YL (100 μg/mL). Plates were imaged using an IVIS 200 In vivo Imaging System. Escalating luminescence was observed only in wells containing luciferase-expressing cells (b).
(§2) The B-YL substrate can be incubated with the brain cancer cell line U87-luc, which was derived from the parental brain cancer cell line U87 after stable transfection with a luciferase gene. […] B-YL clearly adsorbed across the cell membrane and was oxidized by luciferase. Therefore, B-YL can be used for the detection of the cancer cells by bioluminescence.
(§3) The EGF-B-SA-B-YL complex can be tested for the ability to target and image brain cancer cell lines that overexpress the biomarker EGFR using bioluminescence in vitro. U87 (gray hatch bars) and U87-luc (black bars) cells can be treated with free B-YL (150 μg/m L), untargeted B-SA-B-YL complex (150 μg/mL) or EGFR-targeted EGF-B-SA-B-YL complex (50-150 µg/mL). Bioluminescence were detected immediately. […]

The next assay has as its system U87 cells. Briefly: Bioluminescence imaging of parental brain cancer cells without luciferase in vitro. It counts as cell-based. The procedure: as §1, §2, §3

T1 sequence (P08659 whole entry): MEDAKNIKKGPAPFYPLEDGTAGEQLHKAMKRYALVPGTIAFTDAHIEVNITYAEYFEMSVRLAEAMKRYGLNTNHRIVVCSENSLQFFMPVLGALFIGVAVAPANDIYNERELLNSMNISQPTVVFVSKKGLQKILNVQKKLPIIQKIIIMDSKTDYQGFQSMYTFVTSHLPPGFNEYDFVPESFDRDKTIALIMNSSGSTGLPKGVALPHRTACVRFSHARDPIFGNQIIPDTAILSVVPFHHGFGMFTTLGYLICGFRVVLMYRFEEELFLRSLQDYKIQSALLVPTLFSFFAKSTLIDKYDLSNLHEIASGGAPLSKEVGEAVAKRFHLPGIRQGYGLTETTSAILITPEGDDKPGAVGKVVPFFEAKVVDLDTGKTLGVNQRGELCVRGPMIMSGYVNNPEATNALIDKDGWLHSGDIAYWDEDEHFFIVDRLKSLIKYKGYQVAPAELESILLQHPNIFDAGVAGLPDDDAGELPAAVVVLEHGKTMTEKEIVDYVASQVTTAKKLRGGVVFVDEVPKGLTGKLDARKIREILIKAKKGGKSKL

For the substance “6-(3-N—{N-[5-(Hexahydro-2-oxo-1H-thieno[3,4-d]imidazol-4-yl)-1-oxopentyl]-, [3aS-(3aα,4β, 6aα)]}-aminoethyl-poly(ethylene glycol)21-oxyethyl-1H-1,2,3-triazol-5-yl-methylamino-oxomethyl-amino)-2-benzothiazolyl]-4,5-dihydro-,(4S)-4-thiazolecarboxylic acid [B-YL]”, the “substrate of firefly luciferase” value on firefly luciferase (commercial firefly luciferase) was “found to be a substrate of firefly luciferase”. The bioluminescence maximum emission on firefly luciferase (commercial firefly luciferase 40 μg/ml, B-YL 32 μM, HEPES buffer pH 7.7) is on record as 590 nm. Also, the “number of U87-luc cells at which bioluminescence signal was detected (FIG. 1b)” value with U87-luc cells is reported as “at least 7,500 cells per well”. In addition, the “bioluminescence activity in parental U87 cells (FIG. 1a)” value in the assay on U87 cells (B-YL 100 μg/mL, 0-60,000 cells per well, L-15 medium with MgCl2 5 mM) is recorded as “did not reveal bioluminescence activity regardless of the number of cells”. For the same substance, the “conversion to bioluminescence photons by U87 cells (FIG. 2)” value in the assay on U87 cells (U87 cells without luciferase) is recorded as “Neither of the complexes (B-SA-B-YL or EGF-B-SA-B-YL) nor free B-YL were converted to bioluminescence photons”.
